Source: patent US10899769B2, “Imidazopiperazinone inhibitors of transcription activating proteins” (Board of Regents, The University of Texas System, priority 2018, dated 2021)

Columns and labels:
[1] = biological target: GST-CBP(1081-1197) bromodomain (Homo sapiens (Human), UniProt Q92793); assay: CBP AlphaScreen Assay; settings: binding to biotin-H4(1-21) Ac-K5/8/12/16
Method: (§1) Specific binding of the CBP or BRD4 bromodomain to the acetylated peptide derived from the H4 histone substrate (tetra acetylated H4(1-21) Ac-K5/8/12/16) was measured in absence or presence of inhibitors. The GST tagged bromodomains of CBP (1081-1197) and BRD4 (49-170) were obtained from BPS Bioscience and binding to the biotinylated H4(1-21) Ac-K5/8/12/16 (AnaSpec. 64989) was assessed via AlphaScreen technology (Perkin Elmer).
(§2) 5 nM GST-CBP(1081-1197) and 20 nM biotin-H4(1-21) Ac-K5/8/12/16 (AnaSpec. 64989) were incubated with varying concentrations of CBP inhibitors in 15 μL of buffer containing 50 mM HEPES 7.5, […], 1 mM TCEP, and 0.003% Tween-20. After 30 minutes incubation at room temperature, 15 μL of detection buffer (BPS Bio. 33006) containing 7 μg/mL of Glutathione AlphaLisa acceptor beads (Perkin Elmer AL109) and 14 μg/mL of Streptavidin donor beads (Perkin Elmer 676002) was then added to the previous mixture. The reaction was incubated for an additional 2 hours at room temperature, and the AlphaScreen signal was quantified using the Envision Multilabel plate reader. As negative control, GST-CBP(1081-1197) was incubated with the non-acetylated biotin-H4(1-21) peptide(AnaSpec. 62555) and in presence of 0.25% of final DMSO concentration.
(§3) the binding of 2.5 nM of BRD4(49-170) to 10 nM biotin-H4(1-21) Ac-K5/8/12/16 (AnaSpec. 64989) was assessed following the same procedure described for the CBP assay. The standard dose response curves were fitted by Genedata Screener software using the variable-slope model: Signal=Signalnegative control+(SignalDMSO control−Signalnegative control)/(1+(IC50/Dose)^Hill slope).
(§4) Only Signal and Dose in the equation were treated as know values.

[2] = biological target: BRD4(49-170) bromodomain (Homo sapiens (Human), UniProt O60885); assay: BRD4 AlphaScreen Assay; settings: binding to biotin-H4(1-21) Ac-K5/8/12/16
Method: as §1, §2, §3, §4

Chain of GST-CBP(1081-1197) bromodomain (Q92793 1081-1197): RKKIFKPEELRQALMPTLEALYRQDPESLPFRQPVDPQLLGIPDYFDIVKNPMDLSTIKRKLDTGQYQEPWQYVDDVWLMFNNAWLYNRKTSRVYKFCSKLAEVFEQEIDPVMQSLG

| SMILES | IC50 [1] | IC50 [2] |
| --- | --- | --- |
| Cc1cn(-c2cc3cccc(-c4nc(C5CC5)n5c4CN(C)C(=O)C5C)c3cn2)nc1C (centres unmarked) [Example 72, 3-cyclopropyl-1-(3-(3,4-dimethyl-1H-pyrazol-1-yl)isoquinolin-8-yl)-5,7-dimethyl-7,8-dihydroimidazo[1,5-a] pyrazin-6(5H)-one] | 2 nM | 297 nM |
| Cc1c(-c2nc3cccc(-c4nc(C5CC5)n5c4CN(C)C(=O)C5C)c3cc2C(F)F)cnn1C (centres unmarked) [Example 61, 3-cyclopropyl-1-(3-(difluoromethyl)-2-(1,5-dimethyl-1H-pyrazol-4-yl)quinolin-5-yl)-5,7-dimethyl-7,8-dihydroimidazo[1,5-a] pyrazin-6(5H)-one] | 4 nM | 511 nM |
| CC1C(=O)N(C)Cc2c(-c3cccc4nc(-c5cnn(C)c5)c(C(F)F)cc34)nc(C3CN(CCF)C3)n21 (centres unmarked) [Example 25, 1-(3-(Difluoromethyl)-2-(1-methyl-1H-pyrazol-4-yl)quinolin-5-yl)-3-(1-(2-fluoroethyl)azetidin-3-yl)-5,7-dimethyl-7,8-dihydroimidazo[1,5-a]pyrazin-6(5H)-one] | 26 nM | 11600 nM |
| CN1Cc2c(-c3cccc4nc(-c5cnn(C)c5)c(C(F)F)cc34)nc(C3CC3)n2CC1=O [Example 108, 3-cyclopropyl-1-(3-(difluoromethyl)-2-(1-methyl-1H-pyrazol-4-yl)quinolin-5-yl)-7-methyl-7,8-dihydroimidazo[1,5-a] pyrazin-6(5H)-one] | 114 nM | 18300 nM |
| CC1C(=O)N(C)Cc2c(-c3cccc4cc(-c5ccn(C)n5)ncc34)nc(C3CC3)n21 (stereo not drawn) [Example 62, 3-cyclopropyl-5,7-dimethyl-1-(3-(l-methyl-1H-pyrazol-3-yl)isoquinolin-8-yl)-7,8-dihydroimidazo[1,5-a] pyrazin-6(5H)-one] | 2 nM | 164 nM |
| CN1Cc2c(-c3cccc4nc(-c5cnn(C)c5)c(C(F)F)cc34)nc(C3CCOCC3)n2CC1=O [Example 93, 1-(3-(difluoromethyl)-2-(1-methyl-1H-pyrazol-4-yl)quinolin-5-yl)-7-methyl-3-(tetrahydro-2H-pyran-4-yl)-7,8-dihydroimidazo [1,5-a] pyrazin-6(5H)-one] | 357 nM | 25000 nM |
| CN1Cc2c(-c3cccc4cc(C5CCOCC5)ncc34)nc(C3CCOCC3)n2CC1=O [Example 99, 7-methyl-3-(tetrahydro-2H-pyran-4-yl)-1-(3-(tetrahydro-2H-pyran-4-yl)isoquinolin-8-yl)-7,8-dihydroimidazo[1,5-a] pyrazin-6(5H)-one] | 45 nM | 18100 nM |
| CN1Cc2c(-c3c(F)ccc4cc(C5CCOCC5)ncc34)nc(C3CCOCC3)n2CC1=O [Example 101, 1-(7-fluoro-3-(tetrahydro-2H-pyran-4-yl)isoquinolin-8-yl)-7-methyl-3-(tetrahydro-2H-pyran-4-yl)-7,8-dihydroimidazo[1,5-a] pyrazin-6(5H)-one] | 219 nM | 25000 nM |
| CC1C(=O)N(C)Cc2c(-c3cccc4nc(-c5cn(C)cn5)c(C(F)F)cc34)nc(C3CC3)n21 (centres unmarked) [Example 69, 3-cyclopropyl-1-(3-(difluoromethyl)-2-(1-methyl-1H-imidazol-4-yl)quinolin-5-yl)-5,7-dimethyl-7,8-dihydroimidazo[1,5-a] pyrazin-6(5H)-one] | 13 nM | 1530 nM |
| CC1C(=O)N(C)Cc2c(-c3cccc4nc(-c5cnn(C)c5)c(C(F)F)cc34)nc(C3CN(CCO)C3)n21 (centres unmarked) [Example 28, 1-(3-(Difluoromethyl)-2-(1-methyl-1H-pyrazol-4-yl)quinolin-5-yl)-3-(1-(2-hydroxyethyl)azetidin-3-yl)-5,7-dimethyl-7,8-dihydroimidazo[1,5-a]pyrazin-6(5H)-one] | 123 nM | 9370 nM |
| Cc1nn(C)cc1-c1cc2cccc(-c3nc(C4CCOCC4)n4c3CN(C)C(=O)C4C)c2cn1 (centres unmarked) [Example 88, 1-(3-(1,3-dimethyl-1H-pyrazol-4-yl)isoquinolin-8-yl)-5,7-dimethyl-3-(tetrahydro-2H-pyran-4-yl)-7,8-dihydroimidazo[1,5-a] pyrazin-6(5H)-one] | 1 nM | 101 nM |
| CC1C(=O)N(C)Cc2c(-c3cccc4cc(-c5ncco5)ncc34)nc(C3CC3)n21 (centres unmarked) [Example 66, 3-cyclopropyl-5,7-dimethyl-1-(3-(oxazol-2-yl)isoquinolin-8-yl)-7,8-dihydroimidazo[1,5-a] pyrazin-6(5H)-one] | 11 nM | 1590 nM |
| Cn1cc(-c2cc3cccc(-c4nc(C5CC5)n5c4CN(CCO)C(=O)C5)c3cn2)cn1 [Example 6, 3-Cyclopropyl-7-(2-hydroxyethyl)-1-(3-(1-methyl-1H-pyrazol-4-yl)isoquinolin-8-yl)-7,8-dihydroimidazo[1,5-a]pyrazin-6(5H)-one] | 2250 nM | 25000 nM |
| CC1C(=O)N(C)Cc2c(-c3ccc4c(c3)c(-c3cnn(C)c3)nn4C)nc(C3CCOCC3)n21 (centres unmarked) [Example 40, 5,7-Dimethyl-1-(1-methyl-3-(1-methyl-1H-pyrazol-4-yl)-1H-indazol-5-yl)-3-(tetrahydro-2H-pyran-4-yl)-7,8-dihydroimidazo[1,5-a]pyrazin-6(5H)-one] | 9 nM | 1040 nM |

Further lines, results first:

| IC50 [1] | IC50 [2] | SMILES |
| --- | --- | --- |
| 2 nM | 351 nM | CC1C(=O)N(C)Cc2c(-c3cccc4nc(-c5cnn(C)c5)c(C(F)F)cc34)nc(C3(C)CCOCC3)n21 (single isomer, unassigned) [Example 32b, 1-(3-(Difluoromethyl)-2-(1-methyl-1H-pyrazol-4-yl)quinolin-5-yl)-5,7-dimethyl-3-(4-methyltetrahydro-2H-pyran-4-yl)-7,8-dihydroimidazo[1,5-a]pyrazin-6(5H)-one] |
| 1 nM | 1460 nM | CC1C(=O)N(C)Cc2c(-c3cccc4cc(-c5noc(=O)[nH]5)ncc34)nc(C3CC3)n21 (single isomer, unassigned) [Example 44b, 3-(8-(3-Cyclopropyl-5,7-dimethyl-6-oxo-5,6,7,8-tetrahydroimidazo[1,5-a]pyrazin-1-yl)isoquinolin-3-yl)-1,2,4-oxadiazol-5(4H)-one] |
| 2460 nM | ≥ 25000 nM | CC1C(=O)N(C)Cc2c(-c3c(F)ccc4cc(C5CCOCC5)ncc34)nc(C3CCOCC3)n21 (single isomer, unassigned) [Example 34a, 1-(7-Fluoro-3-(tetrahydro-2H-pyran-4-yl)isoquinolin-8-yl)-5,7-dimethyl-3-(tetrahydro-2H-pyran-4-yl)-7,8-dihydroimidazo[1,5-a]pyrazin-6(5H)-one] |
| 1000 nM | 25000 nM | CC1C(=O)N(C)Cc2c(-c3c(F)ccc4cc(-c5ccn(C)n5)ncc34)nc(C3CCOCC3)n21 (single isomer, unassigned) [Example 90a, 1-(7-fluoro-3-(1-methyl-1H-pyrazol-3-yl)isoquinolin-8-yl)-5,7-dimethyl-3-(tetrahydro-2H-pyran-4-yl)-7,8-dihydroimidazo[1,5a] pyrazin-6(5H)-one] |
| 29 nM | 5400 nM | CC1C(=O)N(C)Cc2c(-c3cccc4nc(-c5noc(=O)[nH]5)c(C(F)F)cc34)nc(C3CC3)n21 (single isomer, unassigned) [Example 45b, 3-(5-(3-Cyclopropyl-5,7-dimethyl-6-oxo-5,6,7,8-tetrahydroimidazo[1,5-a]pyrazin-1-yl)-3-(difluoromethyl)quinolin-2-yl)-1,2,4-oxadiazol-5(4H)-one] |
